# Source: patent US12287338B2, “Method and compositions for predicting anti-cancer efficacy of compounds targeting apoptosis pathway” (Ascentage Pharma (Suzhou) Co., Ltd., priority 2020, dated 2025)
# Experiments:
# Type in all cases: cell-based
# [1] = target: T1, Bcl-xL:BIM and Bcl-2:BIM complex (Homo sapiens, UniProt Q07817); experiment: Bcl-2:BIM and Bcl-xL:BIM complex analysis by MSD advanced ELISA in Toledo cells; details: Toledo and RS4; 11 cell lines (FIGS. 4A, 4B), 24 hours
# T1 construct: A diffuse large B cell lymphoma line, Toledo, and an acute lymphocytic leukemia line, RS4; endogenous in cells; host or cells: Toledo
# Protocol: (§1) A diffuse large B cell lymphoma line, Toledo, and an acute lymphocytic leukemia line, RS4; 11, were chosen for the study. Cells were treated for 24 hours with Compound B4 or ABT-737 at indicated concentrations (0.025 uM, 0.04 uM and 0.06 uM, respectively) and harvested for complex analysis. Both Bcl-2:BIM and Bcl-xL:BIM complex were analyzed using MSD advanced ELISA methods.
# [2] = tested on: Bcl-xL:BIM and Bcl-2:BIM complex; experiment: as above; details: Toledo cell line, 24 hours, 0.025, 0.04 and 0.06 uM
# Protocol: as §1
# [3] = tested on: Bcl-xL:BIM and Bcl-2:BIM complex; experiment: Bcl-2:BIM and Bcl-xL:BIM complex analysis by MSD advanced ELISA in RS4; 11 cells; details: 11 cell line, 24 hours, 0.025, 0.04 and 0.06 uM
# Protocol: as §1
# T1 sequence (Q07817 whole entry, one chain of several): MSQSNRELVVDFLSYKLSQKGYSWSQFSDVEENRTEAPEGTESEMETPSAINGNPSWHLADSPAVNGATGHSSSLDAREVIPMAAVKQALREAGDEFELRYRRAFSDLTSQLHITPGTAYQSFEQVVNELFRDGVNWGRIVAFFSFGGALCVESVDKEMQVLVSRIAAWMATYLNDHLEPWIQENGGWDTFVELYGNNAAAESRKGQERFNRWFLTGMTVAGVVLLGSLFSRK
smiles,measurement,setting,value
"Cc1c(S(C)(=O)=O)c(-c2cc(F)cc(N3CCN(c4ccc(NS(=O)(=O)c5ccc(N[C@H](CCN6CCC(C(=O)O)CC6)CSc6ccccc6)c(S(=O)(=O)C(F)(F)F)c5)cc4)CC3)c2)c(-c2ccc(Cl)cc2)n1C(C)C [Compound B4, (R)-1-(3-(4-(N-(4-(4-(3-(2-(4-chlorophenyl)-1-isopropyl-5-methyl-4-(methylsulfonyl)-1H-pyrrol-3-yl)-5-fluorophenyl)piperazin-1-yl)phenyl)sulfamoyl)-2-(trifluoromethylsulfonyl)phenylamino)-4-(phenylthio)butyl)piperidine-4-carboxylic acid]",disruption of Bcl-xL:BIM complex compared with ABT-737,[1],disrupted Bcl-xL:BIM complex more intensely than ABT-737
same,disruption of Bcl-xL:BIM vs Bcl-2:BIM complex,[2],more potently disrupted Bcl-xL:BIM than Bcl-2:BIM complex
same,disruption of Bcl-xL:BIM vs Bcl-2:BIM complex,[3],more potently disrupted Bcl-xL:BIM than Bcl-2:BIM complex
